Reference: patent publication US20120302566A1, “INDANYLOXYDIHYDROBENZOFURANYLACETIC ACIDS” (BOEHRINGER INGELHEIM INTERNATIONAL GMBH, priority 2010, published 2012)

molecular target: human GPR40 receptor (Homo sapiens, UniProt O14842); test: IP1 accumulation measurements using the IPOne assay system; type: cell-based; conditions: IP1 accumulation (IPOne HTRF), 1 hour stimulation; 1321N1 cells stably expressing human GPR40; read-out: EC50 values on GPR40 determined as described in (B)
Procedure: (B) IP1 accumulation measurements using the IPOne assay system—1321N1 cells stably expressing human GPR40 receptor (Euroscreen, Belgium) were seeded 24 h before the assay in black clear-bottom collagen-coated 384-well plates in culture medium containing 10% FCS, 1% Na-Pyruvate and 400 μg/mL G418. IP1 is assayed according to the Manufacturer's description (Cisbio Bioassays, France). In brief, the assay is started by substitution of the culture medium by stimulation buffer (Hepes 10 mM, CaCl2 1 mM, MgCl2 0.5 mM, KCl 4.2 mM, NaCl 146 mM and glucose 5.5 mM, pH 7.4) without LiCl. Cells are stimulated for 1 hour at 37°, 10% CO2 by addition of the compounds that were diluted in stimulation buffer containing LiCl yielding a final LiCl concentration of 50 mM. Assays are stopped by adding HTRF-conjugates (IP1-d2 and Anti-IP1 cryptate Tb) and lysis buffer, provided by the manufacturer. After an incubation time of 1 hour at room temperature plates are measured using an EnVision™, Perkin Elmer.

Chain of human GPR40 receptor (O14842 whole entry): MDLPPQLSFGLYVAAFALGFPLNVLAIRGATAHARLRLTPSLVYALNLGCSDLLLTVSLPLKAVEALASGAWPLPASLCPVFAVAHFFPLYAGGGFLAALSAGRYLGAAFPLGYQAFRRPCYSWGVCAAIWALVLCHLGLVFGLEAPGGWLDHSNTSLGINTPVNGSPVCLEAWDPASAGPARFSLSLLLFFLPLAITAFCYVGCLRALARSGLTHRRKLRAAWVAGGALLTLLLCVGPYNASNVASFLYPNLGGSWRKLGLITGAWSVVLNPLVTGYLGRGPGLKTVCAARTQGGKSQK

SMILES	EC50
COCC(F)(F)c1cccc2c1CC[C@H]2Oc1ccc2c(c1)OC[C@H]2CC(=O)O [Example 79, {(S)-6-[(R)-4-(1,1-Difluoro-2-methoxy-ethyl)-indan-1-yloxy]-2,3-dihydro-benzofuran-3-yl}-acetic acid]	288 nM
Cc1cccnc1-c1cccc2c1CC[C@H]2Oc1ccc2c(c1)OC[C@H]2CC(=O)O [Example 58, {(S)-6-[(R)-4-(3-Methyl-pyridin-2-yl)-indan-1-yloxy]-2,3-dihydro-benzofuran-3-yl}-acetic acid]	534 nM
CC1(C)CCCO[C@H]1c1cccc2c1CC[C@H]2Oc1ccc2c(c1)OC[C@H]2CC(=O)O (single isomer, unassigned) [Example 67]	176 nM
CC(C)(C)Cc1cccc2c1CC[C@H]2Oc1ccc2c(c1)OC[C@H]2CC(=O)O [Example 34, {(S)-6-[(R)-4-(2,2-Dimethyl-propyl)-indan-1-yloxy]-2,3-dihydro-benzofuran-3-yl}-acetic acid]	13 nM
O=C(O)C[C@@H]1COc2cc(O[C@H]3CCc4ccc(C(F)(F)F)cc43)ccc21 [Example 50, {(S)-6-[(S)-6-Trifluoromethyl-indan-1-yloxy]-2,3-dihydro-benzofuran-3-yl]-acetic acid]	2970 nM
O=C(O)C[C@@H]1COc2cc(O[C@@H]3CCc4c(-c5c(Cl)cccc5Cl)cccc43)ccc21 [Example 88, {(S)-6-[(R)-4-(2,6-Dichloro-phenyl)-indan-1-yloxy]-2,3-dihydro-benzofuran-3-yl}-acetic acid]	28 nM
Cc1noc(C)c1-c1cccc2c1CC[C@H]2Oc1ccc2c(c1)OC[C@H]2CC(=O)O [Example 74, {(S)-6-[(R)-4-(3,5-Dimethyl-isoxazol-4-yl)-indan-1-yloxy]-2,3-dihydro-benzofuran-3-yl}-acetic acid]	327 nM
COc1cc(C)c(-c2cccc3c2CC[C@H]3Oc2ccc3c(c2)OC[C@H]3CC(=O)O)c(C)n1 [Example 64, {(S)-6-[(R)-4-(6-Methoxy-2,4-dimethyl-pyridin-3-yl)-indan-1-yloxy]-2,3-dihydro-benzofuran-3-yl}-acetic acid]	213 nM
CC1(C)CCC[C@@H]1c1cccc2c1CC[C@H]2Oc1ccc2c(c1)OC[C@H]2CC(=O)O (single isomer, unassigned) [Example 75]	39 nM
CC1(C)CCCO[C@@H]1c1cccc2c1CC[C@H]2Oc1ccc2c(c1)OC[C@H]2CC(=O)O (single isomer, unassigned) [Example 66]	80 nM
Cc1ccccc1-c1cccc2c1CC[C@H]2Oc1ccc2c(c1)OC[C@H]2CC(=O)O [Example 62, {(S)-6-[(R)-4-o-Tolyl-indan-1-yloxy]-2,3-dihydro-benzofuran-3-yl}-acetic acid]	52 nM
CC1(c2cccc3c2CC[C@H]3Oc2ccc3c(c2)OC[C@H]3CC(=O)O)CC1 [Example 87, {(S)-6-[(R)-4-(1-Methyl-cyclopropyl)-indan-1-yloxy]-2,3-dihydro-benzofuran-3-yl}-acetic acid]	64 nM
O=C(O)C[C@@H]1COc2cc(O[C@@H]3CCc4c(-c5nccc6ccccc56)cccc43)ccc21 [Example 77, {(S)-6-[(R)-4-Isoquinolin-1-yl-indan-1-yloxy]-2,3-dihydro-benzofuran-3-yl}-acetic acid]	57 nM
CO[C@H](c1cccc2c1CC[C@H]2Oc1ccc2c(c1)OC[C@H]2CC(=O)O)C(C)(C)C (single isomer, unassigned) [Example 29, {(S)-6-[(R)-4-((S)*-1-Methoxy-2,2-dimethyl-propyl)-indan-1-yloxy]-2,3-dihydro-benzofuran-3-yl}-acetic acid]	14 nM
Cc1cc(=O)n(C)c(C)c1-c1cccc2c1CC[C@H]2Oc1ccc2c(c1)OC[C@H]2CC(=O)O [Example 63, {(S)-6-[(R)-4-(1,2,4-Trimethyl-6-oxo-1,6-dihydro-pyridin-3-yl)-indan-1-yloxy]-2,3-dihydro-benzofuran-3-yl}-acetic acid]	3150 nM
O=C(O)C[C@@H]1COc2cc(O[C@@H]3CCc4c3ccc(F)c4Cl)ccc21 [Example 44, {(S)-6-[(R)-4-Chloro-5-fluoro-indan-1-yloxy]-2,3-dihydro-benzofuran-3-yl}-acetic acid]	25 nM
CC(C)(C)c1ccc2c(c1)CC[C@H]2Oc1ccc2c(c1)OC[C@H]2CC(=O)O [Example 95, {(S)-6-[(R)-5-tert-Butyl-indan-1-yloxy]-2,3-dihydro-benzofuran-3-yl}-acetic acid]	100 nM
CC(C)(O)C(F)(F)c1cccc2c1CC[C@H]2Oc1ccc2c(c1)OC[C@H]2CC(=O)O [Example 85, {(S)-6-[(R)-4-(1,1-Difluoro-2-hydroxy-2-methyl-propyl)-indan-1-yloxy]-2,3-dihydro-benzofuran-3-yl}-acetic acid]	3720 nM

SMILES	EC50
Cc1cccc(C)c1-c1ccc2c(c1)[C@@H](Oc1ccc3c(c1)OC[C@H]3CC(=O)O)CC2 [Example 53, {(S)-6-[(S)-6-(2,6-Dimethyl-phenyl)-indan-1-yloxy]-2,3-dihydro-benzofuran-3-yl}-acetic acid]	211 nM
O=C(O)C[C@@H]1COc2cc(OC3CCc4ccccc43)ccc21 (some centres unmarked) [Example 43]	420 nM
C=CCCC(C)(O)c1cccc2c1CC[C@H]2Oc1ccc2c(c1)OC[C@H]2CC(=O)O (stereo partly drawn) [Example 82, {(S)-6-[(R)-4-(1-Hydroxy-1-methyl-pent-4-enyl)-indan-1-yloxy]-2,3-dihydro-benzofuran-3-yl}-acetic acid]	3350 nM
O=C(O)C[C@@H]1COc2cc(O[C@@H]3CCc4c(-c5ccccc5C(F)(F)F)cccc43)ccc21 [Example 69, {(S)-6-[(R)-4-(2-Trifluoromethyl-phenyl)-indan-1-yloxy]-2,3-dihydro-benzofuran-3-yl}-acetic acid]	88 nM
O=C(O)C[C@@H]1COc2cc(O[C@@H]3CCc4c3cccc4-n3ccccc3=O)ccc21 [Example 51, {(S)-6-[(R)-4-(2-Oxo-2H-pyridin-1-yl)-indan-1-yloxy]-2,3-dihydro-benzofuran-3-yl}-acetic acid]	9670 nM
N#Cc1cccnc1-c1cccc2c1CC[C@H]2Oc1ccc2c(c1)OC[C@H]2CC(=O)O [Example 46, {(S)-6-[(R)-4-(3-Cyano-pyridin-2-yl)-indan-1-yloxy]-2,3-dihydro-benzofuran-3-yl}-acetic acid]	982 nM
O=C(O)C[C@@H]1COc2cc(O[C@@H]3CCc4c(-c5cccnc5C(F)(F)F)cccc43)ccc21 [Example 73, {(S)-6-[(R)-4-(2-Trifluoromethyl-pyridin-3-yl)-indan-1-yloxy]-2,3-dihydro-benzofuran-3-yl}-acetic acid]	2720 nM
CC1(C)CCCC=C1c1cccc2c1CC[C@H]2Oc1ccc2c(c1)OC[C@H]2CC(=O)O [Example 70, {(S)-6-[(R)-4-(6,6-Dimethyl-cyclohex-1-enyl)-indan-1-yloxy]-2,3-dihydro-benzofuran-3-yl}-acetic acid]	8 nM
COc1cc(-c2cccc3c2CC[C@H]3Oc2ccc3c(c2)OC[C@H]3CC(=O)O)c(F)cn1 [Example 68, {(S)-6-[(R)-4-(5-Fluoro-2-methoxy-pyridin-4-yl)-indan-1-yloxy]-2,3-dihydro-benzofuran-3-yl}-acetic acid]	359 nM
O=C(O)C[C@@H]1COc2cc(O[C@@H]3CCc4c(C5CC5)cccc43)ccc21 [Example 31, {(S)-6-[(R)-4-Cyclopropyl-indan-1-yloxy]-2,3-dihydro-benzofuran-3-yl}-acetic acid]	168 nM
Cc1nccnc1-c1cccc2c1CC[C@H]2Oc1ccc2c(c1)OC[C@H]2CC(=O)O [Example 99, {(S)-6-[(R)-4-(3-Methyl-pyrazin-2-yl)-indan-1-yloxy]-2,3-dihydro-benzofuran-3-yl}-acetic acid]	3270 nM
O=C(O)C[C@@H]1COc2cc(O[C@@H]3CCc4c(C5=CCCC56CCOCC6)cccc43)ccc21 [Example 47, {(S)-6-[(R)-4-(8-Oxa-spiro[4.5]dec-1-en-1-yl)-indan-1-yloxy]-2,3-dihydro-benzofuran-3-yl}-acetic acid]	71 nM
CO[C@@H](c1cccc2c1CC[C@H]2Oc1ccc2c(c1)OC[C@H]2CC(=O)O)C(F)(F)F (single isomer, unassigned) [Example 39, {(S)-6-[(R)-4-((S)*-2,2,2-Trifluoro-1-methoxy-ethyl)-indan-1-yloxy]-2,3-dihydro-benzofuran-3-yl}-acetic acid]	262 nM
O=C(O)C[C@@H]1COc2cc(O[C@@H]3CCc4c3cccc4C(F)(F)C(F)(F)F)ccc21 [Example 101, {(S)-6-[(R)-4-Pentafluoroethyl-indan-1-yloxy]-2,3-dihydro-benzofuran-3-yl}-acetic acid]	25 nM
COC(C)(C)C(F)(F)c1cccc2c1CC[C@H]2Oc1ccc2c(c1)OC[C@H]2CC(=O)O [Example 84, {(S)-6-[(R)-4-(1,1-Difluoro-2-methoxy-2-methyl-propyl)-indan-1-yloxy]-2,3-dihydro-benzofuran-3-yl}-acetic acid]	117 nM
O=C(O)C[C@@H]1COc2cc(O[C@@H]3CCc4c3ccc(F)c4F)ccc21 [Example 37, {(S)-6-[(R)-4,5-Difluoro-indan-1-yloxy]-2,3-dihydro-benzofuran-3-yl}-acetic acid]	78 nM
CC1(C)CCC[C@H]1c1cccc2c1CC[C@H]2Oc1ccc2c(c1)OC[C@H]2CC(=O)O (single isomer, unassigned) [Example 76]	95 nM
